Source: patent publication US20240226017A1, “ERODIBLE TABLET” (Eli Lilly and Company, priority 2021, published 2024)
Read-outs that look alike come from different tables or passages of the source. Marks after values point to notes of the source that are not given here.

Experiments:
[1] = human, in vivo
Experimental: A multiple-ascending dose study is conducted to study the safety, tolerability, and pharmacokinetics of erodible tablets containing Compound 2 administered as 3 consecutive, once-daily oral doses in healthy participants. Tablets are prepared having the composition set forth in Table 18 below using a direct compression process as described for Example 22 in Table 7 above. Average solid fraction of tablets was 0.90. The Compound 2 oral doses for this study are summarized in the following 4 “dose cohorts”: • Cohort 1, 4-mg dose: 1 tablet of 4 mg Compound 2+300 mg SNAC • Cohort 2, 8-mg dose:2 tablets of 4 mg Compound 2+300 mg SNAC • Cohort 3, 12-mg dose: 1 tablet of 12 mg Compound 2+300 mg SNAC • Cohort 4, 24-mg dose:2 tablets of 12 mg Compound 2+300 mg SNAC Sufficient participants are randomly assigned to study intervention to ensure approximately 10 evaluable participants (8 receiving Compound 2 and 2 receiving placebo) from each of 4 dose cohorts complete the study. In each cohort, eligible participants are randomly assigned to receive 3 once-daily doses of either Compound 2 or placebo. Data for the 4 cohorts are provided in Table 18 below, along with a comparison to IV data from a separate study having similar protocol design and conducted at the same clinical site.

in vivo [2] = experiment: in vivo; set-up: species or system cynomolgus monkeys; conditions: male, cynomolgus monkey, iv
Experimental: Plasma concentrations of Compound 1 are determined by a LC/MS method that measures intact Compound 1, peptide plus linked time extension. For each assay, Compound 1 and an IS, are extracted from 100% monkey plasma. This procedure involves initially thoroughly mixing the plasma sample (50 μl) with acetonitrile:water:formic acid (50:50:0.1; 25 μl) plus 2-propanol:methanol (50:50; 250 μl). Two distinct layers are formed upon centrifugation with Compound 1 and the IS contained in the supernatant layer. After moving 200-μL of the supernatant layer to the Sirocco Protein Precipitation plate, the plate is centrifuged (conditions). Next 600-μL of Water:Formic (100:2; 600 μl) are added to each well of the Sirocco plate, and the plate is vortexed, sealed, and centrifuged. After SPE plate conditioning, the sample from the Sirocco plate (700 μl) is transferred to a Waters, SPE plate, and centrifuged. The SPE plate, after washing, is eluted with acetonitrile:formic acid (100:2; 80 μl) into Invitrosol:water:water:formic acid 100:2 (35:15:50; 100 μl). The final sample (25 μl) is loaded onto a Waters, ACQUITY UPLC BEH C18 Column, 130 Å, (2.1 mm×100 mm, 1.7 μm). The column effluent is injected into a Sciex API 5500 mass spectrometer for detection and quantitation. Male cynomolgus monkeys are administered a single intravenous dose (0.05 mg/kg) or oral formulation (10 mg/tablet) of Compound 1. […]

[3] = set-up: species or system cynomolgus monkeys; conditions: cynomolgus monkey, in vivo, po
Experimental: High resolution liquid chromatography/mass spectrometry (HR-LC/MS) is used to measure the concentrations of Compound 2 in cynomolgus monkey plasma. Standards and controls are prepared in cynomolgus monkey plasma using Compound 2, and any dilutions required to bring samples into the quantitative range are also performed in control cynomolgus monkey plasma. To control assay variability, an IS is added to all the standards and samples.
For Studies with Examples 14, 15, 16, 17, 18, 19: Compound 2 and the IS are extracted from monkey plasma (50 μL) by protein precipitation using isopropyl alcohol and methanol (50:50 v/v). The samples are then centrifuged (4000 rpm for 10 minutes) and the supernatant is transferred to a Siricco Protein Precipitation Plate. After centrifugation (4000 rpm for 20 minutes), the samples are loaded on a Sep-Pak tC18 SPE microelution plate that is conditioned with 2% formic acid in water. […]
Pharmacokinetic (PK) parameters of Compound 2 are determined after a single 10-mg oral dose of Compound 2 in different formulations to male and female cynomolgus monkeys. […] Plasma concentrations of Compound 2 are detected through 504 hours post-dose.

in vivo [4] = experiment: in vivo; set-up: species or system cynomolgus monkeys; conditions: cynomolgus monkey, iv
Experimental: Plasma concentrations of Compound 2 are determined by a LC/MS method. Compound 2 and an internal standard (IS) are extracted from 100% monkey plasma (25 μL) using 50 mM ammonium bicarbonate. After centrifugation, the supernatant is transferred and 2B10 biotinylated antibody along with 5C9 biotinylated antibody (5 μL each) are added. The samples are then centrifuged, T1 Streptavidin beads are added (20 μL) for 30 minutes, and the analyte is eluted from the beads with 30% acetonitrile with 5% formic acid in water followed by mixing. A final sample (10 μL) containing 31% acetonitrile in 10% formic acid is loaded onto a Supelco Analytical Discovery BIO Wide Pore C5-3, 5 cm×0.1 mm for LC/MS analysis. The plasma PK of Compound 2 is evaluated in male cynomolgus monkeys following a single IV dose (50 nmol/kg). Blood samples are collected over 504 hours. Plasma is harvested from blood samples by centrifugation and stored frozen until analysis. Plasma concentrations of Compound 2 are detected through 504 hours post-dose. PK parameters for one animal are extrapolated using the concentration versus time data up to 72 hours post-dose.

Compound: CC[C@H](C)[C@H](NC(=O)[C@H](CC(C)C)NC(=O)[C@](C)(Cc1ccc(O)cc1)NC(=O)[C@@H](CCC(=O)O)NC(=O)[C@@H](NC(=O)[C@H](Cc1ccccc1)NC(=O)[C@H](CCC(=O)O)NC(=O)C(C)(C)NC(=O)[C@H](CCC(N)=O)NC(=O)[C@H](C)NC(=O)[C@H](CCCCNC(=O)COCCOCCNC(=O)COCCOCCNC(=O)CC[C@H](NC(=O)CCCCCCCCCCCCCCCCC(=O)O)C(=O)O)NC(=O)[C@H](CCCN)NC(=O)[C@H](CC(=O)O)NC(=O)[C@H](CC(C)C)NC(=O)[C@](C)(CC(C)C)NC(=O)[C@@H](NC(=O)[C@H](CO)NC(=O)[C@H](Cc1ccncc1)NC(=O)[C@H](CC(=O)O)NC(=O)[C@H](CO)NC(=O)[C@@H](NC(=O)[C@](C)(Cc1ccccc1F)NC(=O)[C@@H](NC(=O)CNC(=O)[C@H](CCC(=O)O)NC(=O)C(C)(C)NC(=O)[C@@H](N)Cc1ccc(O)cc1)[C@@H](C)O)[C@@H](C)O)[C@@H](C)CC)[C@@H](C)CC)C(=O)N[C@@H](CCC(=O)O)C(=O)NCC(=O)NCC(=O)N1CCC[C@H]1C(=O)N[C@@H](CO)C(=O)N[C@@H](CO)C(=O)NCC(=O)N[C@@H](C)C(=O)N1CCC[C@H]1C(=O)N1CCC[C@H]1C(=O)N1CCC[C@H]1C(=O)N[C@@H](CO)C(N)=O [Compound 2, Y-Aib-EGT-αMeF(2F)-TSD-4Pal-SI-αMeL-LD-Orn-K((2-[2-(2-Amino-ethoxy)-ethoxy]-acetyl)2-(γ-Glu)-CO-(CH2)16-CO2H)AQ-Aib-EFI-(D-Glu)-αMeY-LIEGGPSSGAPPPS-NH2]
- Oral Bioavailability Based on AUC (0-168) ([1]; 0.5 mg): 100%
- Oral Bioavailability Based on AUC (0-∞) ([1]; 0.5 mg): 100%
- Dose-Normalized AUC(0-168) ([1]; iv): 22800^e ^ ng · h/mL · mg
- Dose-Normalized AUC(0-∞) ([1]; iv): 49200^e ^ ng · h/mL · mg
- clearance (in vivo [2]; CL): 13 mL/day/kg
- half-life (in vivo [2]; T1/2): 96 h
- Plasma concentrations detected through (post-dose) [3]: 504 h
- Plasma concentrations detected through (post-dose) (in vivo [4]): 504 h
- AUC0-inf (in vivo [4]; male, 50 nmol/kg): 84.232 µM·h
- AUC(0-inf) (in vivo [4]; male, 50 nmol/kg): 84.2 µM·h
- CL (in vivo [4]; male, 50 nmol/kg): 14.2 mL/day/kg
- clearance (in vivo [4]; male, 50 nmol/kg): 14.2 mL/day/kg
- Cmax (in vivo [4]; male, 50 nmol/kg, Cmax): 1050 nM
- half-life (in vivo [4]; male, 50 nmol/kg, T1/2): 84 h
